Results on 85 sequences are retold here after the OligoGym collection.

These antisense oligonucleotides have a phosphorothioate backbone; sugars and methylation of C are not fully specified.

Series [1] has as its target PDPK1. Conditions: ASO.
The target of series [2] is GNA12. Conditions: ASO.
Note: test concentration or dose not given here.

In series [1], AAAAGAGCCTTCCCCAAG came in with a remaining target (mRNA or protein) (fraction of control) of 0.88.

For AAACTGGCTCAGGAGATT, the remaining target (mRNA or protein) (fraction of control) in series [1] was 0.26.

AAAGGTCTGAACTCTTAC registered a remaining target (mRNA or protein) (fraction of control) in series [1] of 0.59.

AAATAAACCCTTCCGCTT registered a remaining target (mRNA or protein) (fraction of control) in series [1] of 0.74.

AACAACAACCTCTTCTCA: the remaining target (mRNA or protein) (fraction of control) in series [1] is 0.7.

In turn, AACTGGTGCCAAGGGTTT gave a remaining target (mRNA or protein) (fraction of control) in series [1] of 0.54.

In series [1], AAGGCCGAAATACAGCTT had a remaining target (mRNA or protein) (fraction of control) of 0.29.

Consider AAGGTCCCTGTGAATGAT, for which the remaining target (mRNA or protein) (fraction of control) in series [1] was 0.39.

With ACTGGATGGGCACGGCGT, the remaining target (mRNA or protein) (fraction of control) in series [1] worked out at 0.63.

As for AGACTTTTGCTGTTCCAA, the remaining target (mRNA or protein) (fraction of control) in series [1] was determined as 0.28.

With AGCGTCCTCCTCCCCGAA, in series [1], the remaining target (mRNA or protein) (fraction of control) was found to be 0.87.

In series [1], AGCTGGCTGGTGGTCCTG had a remaining target (mRNA or protein) (fraction of control) of 0.36.

For the sequence AGGCGCGACATGACATCC, the remaining target (mRNA or protein) (fraction of control) in series [1] stood at 0.25.

Turning to ATAGCAGTCCTCGTCGTC, the remaining target (mRNA or protein) (fraction of control) in series [1] was determined as 0.57.

Sequence ATATTCTCTGGAGGTTGC had a remaining target (mRNA or protein) (fraction of control) in series [1] of 0.78.

For ATCGGGTACAGGTCTCAT, the remaining target (mRNA or protein) (fraction of control) in series [1] was determined as 0.68.

For the sequence ATGTGGTCCTTCTGTGAG, in series [1], the remaining target (mRNA or protein) (fraction of control) is at least 1.

With ATGTTTTCCGGTTTAAGG, in series [1], the remaining target (mRNA or protein) (fraction of control) stood at 0.66.

Turning to ATTGTCATAATTGCCATA, the remaining target (mRNA or protein) (fraction of control) in series [1] was found to be 0.78.

On to ATTTTCTACAAACTGGTG, for which, in series [1], the remaining target (mRNA or protein) (fraction of control) is 0.83.

On to CAAGAGCCCAAAGGTCTG, for which the remaining target (mRNA or protein) (fraction of control) in series [1] was at least 1.

Take CAAGGTTTCCGCCTCTGC: the remaining target (mRNA or protein) (fraction of control) in series [1] is 0.26.

The sequence CAAGTACTCTAAAGCAGA had a remaining target (mRNA or protein) (fraction of control) in series [1] of 0.65.

CACTGCACAGCGGCGTCC gave a remaining target (mRNA or protein) (fraction of control) in series [1] of at least 1.

Sequence CAGCTTCTCGTCGTCCTG had a remaining target (mRNA or protein) (fraction of control) in series [1] of 0.26.

In turn, CAGGACAACCGTGGAAAA registered a remaining target (mRNA or protein) (fraction of control) in series [1] of at least 1.

With CAGTCTGGGTCCTCACCA, the remaining target (mRNA or protein) (fraction of control) in series [1] worked out at 0.54.

In series [1], CATCCCGCTCTCTGGTTA had a remaining target (mRNA or protein) (fraction of control) of 0.41.

With CCAGCTCGGAATGGTGGG, the remaining target (mRNA or protein) (fraction of control) in series [1] was 0.82.

For CCTGAAATGTGAAGTAAA, the remaining target (mRNA or protein) (fraction of control) in series [1] was at least 1.

CGAAGTTCTTGTGACCAA gave a remaining target (mRNA or protein) (fraction of control) in series [1] of at least 1.

As for CGATCTCAGCCGTGTAAA, the remaining target (mRNA or protein) (fraction of control) in series [1] turned out to be 0.13.

Consider CTCAGGCCGCTTCTTCCG, for which the remaining target (mRNA or protein) (fraction of control) in series [1] was 0.53.

CTCTAAAGCAGACACAAT: the remaining target (mRNA or protein) (fraction of control) in series [1] was 0.71.

In the case of CTGAAATGTGAAGTAAAG, the remaining target (mRNA or protein) (fraction of control) in series [1] was determined as 0.45.

The sequence CTGACAGGGAGTGTGAGG showed a remaining target (mRNA or protein) (fraction of control) in series [1] of at least 1.

Consider CTGCTCTATGTTGCTGCC, for which, in series [1], the remaining target (mRNA or protein) (fraction of control) stood at 0.55.

On to CTGGTATCGCTGCCTCCA, for which the remaining target (mRNA or protein) (fraction of control) in series [1] came to 0.22.

Consider CTTCCATTTCCTCACAGC, for which the remaining target (mRNA or protein) (fraction of control) in series [1] came out at 0.33.

As for GAAGTCCTCAGGCCGCTT, in series [1], the remaining target (mRNA or protein) (fraction of control) was 0.28.

GACATCCCGCTCTCTGGT returned a remaining target (mRNA or protein) (fraction of control) in series [1] of 0.68.

Regarding GAGTTGGCCCTGGCTTGT, the remaining target (mRNA or protein) (fraction of control) in series [1] worked out at 0.5.

On to GATTTTGCGAATATATTT, for which the remaining target (mRNA or protein) (fraction of control) in series [1] is at least 1.

Consider GCAGGAACATAACACCAC, for which, in series [1], the remaining target (mRNA or protein) (fraction of control) was found to be 0.54.

Sequence GCAGGTGTCCTGGCAGCG showed a remaining target (mRNA or protein) (fraction of control) in series [1] of 0.49.

Regarding GCATATTCTCTGGAGGTT, the remaining target (mRNA or protein) (fraction of control) in series [1] is at least 1.

Take GCATGCTGCAGGGAGCCG: the remaining target (mRNA or protein) (fraction of control) in series [1] was at least 1.

With GCGTCCTCCTCCCCGAAG, the remaining target (mRNA or protein) (fraction of control) in series [1] was at least 1.

Turning to GCTGCAAGGTTTCCGCCT, the remaining target (mRNA or protein) (fraction of control) in series [1] is at least 1.

GCTGCCTCCAAACCTCCT gave a remaining target (mRNA or protein) (fraction of control) in series [1] of at least 1.

For GCTGTTCCCACGAATGAG, the remaining target (mRNA or protein) (fraction of control) in series [1] came out at 0.39.

GGACTTCTCCGTGAGCAG yielded a remaining target (mRNA or protein) (fraction of control) in series [1] of 0.28.

The sequence GGAGGCTGGGCATGCTGC came in with a remaining target (mRNA or protein) (fraction of control) in series [1] of 0.16.

For GGTACAGGTCTCATCGAA, the remaining target (mRNA or protein) (fraction of control) in series [1] was found to be 0.1.

Sequence GGTCTCTTGCCTTAGGGA returned a remaining target (mRNA or protein) (fraction of control) in series [1] of 0.37.

Consider GGTGTGCTTTAAGAGGTC, for which the remaining target (mRNA or protein) (fraction of control) in series [1] was 0.6.

For the sequence GTCCCTGTGAATGATGCC, the remaining target (mRNA or protein) (fraction of control) in series [1] was determined as 0.24.

The sequence GTGAGGAGGAGGACGAAG registered a remaining target (mRNA or protein) (fraction of control) in series [1] of 0.7.

For GTGCTGGACTCAGTCTGG, in series [1], the remaining target (mRNA or protein) (fraction of control) was 0.51.

In series [2], GTGGTGAAGTGGTGGAAG registered a remaining target (mRNA or protein) (fraction of control) of 0.87.

GTTCAAAGGAGTTCGAGT had a remaining target (mRNA or protein) (fraction of control) in series [1] of 0.5.

For the sequence GTTCCGTCTCTTCCTGTC, the remaining target (mRNA or protein) (fraction of control) in series [2] is 0.36.

As to GTTGAAGAAGAGCTTGTT, in series [2], the remaining target (mRNA or protein) (fraction of control) stood at 0.33.

On to GTTTCCGCCAGCCTGCTT, for which, in series [1], the remaining target (mRNA or protein) (fraction of control) is at least 1.

Regarding TAAACCCTTCCGCTTATC, the remaining target (mRNA or protein) (fraction of control) in series [1] is at least 1.

As for TAAAGCTTAACAAAGAAG, the remaining target (mRNA or protein) (fraction of control) in series [1] is at least 1.

The sequence TAAGTCCAGTTCAAAGGA displayed a remaining target (mRNA or protein) (fraction of control) in series [1] of 0.75.

The sequence TATGATATGTCGCTTCTC displayed a remaining target (mRNA or protein) (fraction of control) in series [1] of 0.42.

On to TCAGGAACATCCCATGCT, for which, in series [2], the remaining target (mRNA or protein) (fraction of control) was found to be 0.79.

Turning to TCCATGAGGACCTGGTCG, in series [2], the remaining target (mRNA or protein) (fraction of control) came to 0.79.

On to TCCGGTCCAAGTTGTCCA, for which, in series [2], the remaining target (mRNA or protein) (fraction of control) was determined as 0.88.

For the sequence TCCTGTTAGGCGTGTGGA, in series [1], the remaining target (mRNA or protein) (fraction of control) is 0.53.

For TCGAAGATGGTGTCGCGG, the remaining target (mRNA or protein) (fraction of control) in series [2] came to 0.98.

TCTGGAGAAACGTACTGC came in with a remaining target (mRNA or protein) (fraction of control) in series [1] of at least 1.

In series [2], TCTGGTCGAACTCGCGGC showed a remaining target (mRNA or protein) (fraction of control) of 0.7.

In the case of TCTTCTTAATAACGAAGT, the remaining target (mRNA or protein) (fraction of control) in series [2] was 0.48.

TGAGCAGCTCTGGAGAAA: the remaining target (mRNA or protein) (fraction of control) in series [1] worked out at 0.85.

Turning to TGGACAAAGAAAGTTTTA, the remaining target (mRNA or protein) (fraction of control) in series [1] was at least 1.

The sequence TGGATGTGCATATCTTCA had a remaining target (mRNA or protein) (fraction of control) in series [1] of 0.81.

TGGTCTCGAAGATGTTCA: the remaining target (mRNA or protein) (fraction of control) in series [2] amounted to 0.53.

The sequence TGTCGCGGAACTCCAGCA gave a remaining target (mRNA or protein) (fraction of control) in series [2] of 0.79.

Consider TTAATAACGAAGTCATGC, for which the remaining target (mRNA or protein) (fraction of control) in series [2] worked out at 0.73.

With TTCATGGACTCCACCAGC, in series [2], the remaining target (mRNA or protein) (fraction of control) worked out at 0.57.

As to TTGTTGACGATGGTCTCG, the remaining target (mRNA or protein) (fraction of control) in series [2] came to 0.73.

Sequence TTTTCAGAATACTGCCAA gave a remaining target (mRNA or protein) (fraction of control) in series [2] of 0.63.
